The values that follow come from paper PMC8802806, “Synthesis and Antitumor Activity of Erlotinib Derivatives Linked With 1,2,3-Triazole” (Frontiers in Pharmacology, 2022).

One data set has as its system HeLa cells. Put plainly: Cell antiproliferative activity assay (CCK8). The class given is cell-based, human. The note with it: for inhibition at 0.25 µM: 250 nM; for inhibition at 0.5 µM: 500 nM; for inhibition at 1 µM: 1000 nM; for inhibition at 2 µM: 2000 nM; for inhibition at 4 µM: 4000 nM; for inhibition at 8 µM: 8000 nM; for inhibition at 16 µM: 16000 nM. Here is the method:
Cell antiproliferative activity was evaluated by the Cell Counting Kit-8 (CCK8, DOJINDO, Japan) assay. The cells were seeded at a density of 2,000 cells per well into 96-well microplate in 100 μl of growth medium. Cells were incubated at 37°C and 5% CO2 overnight. The next day, 100 μl per well of diluted inhibitor in growth medium was added with the final concentration from 0.1 nM to 100 μM. The cells were treated with DMSO as control. A series of dilutions are made in 0.1% DMSO in assay medium so that the final concentration of DMSO is 0.1% in all of treatments. Cells were incubated at 37°C and 5% CO2 for 48 h. Then, 10 μl of CCK8 was added to each well. The plates were incubated at 37°C for 2 h; after that, the plates were recorded by measuring absorbance at 450 nm with the reference wavelength of 630 nm using an EnVision Multilabel Reader (PerkinElmer). The IC50 values were calculated using GraphPad Prism 6.0 software and determined by the concentration causing a half-maximal percent activity. All assays were conducted with three parallel samples and three repetitions.

Setting [1] is: Homo sapiens, HeLa, 48 h, HeLa cells, CCK8, 48 h, mean ± SD, n = 3, read-out: IC50 (μM) HeLa.
[2] abbreviates: Homo sapiens, HELA 2000cells/well, Repeat1, read-out: Inhibition (%) Repeat1.
Where [3] appears, read: Homo sapiens, HELA 2000cells/well, Repeat2, read-out: Inhibition (%) Repeat2.
Setting [4] is: Homo sapiens, HeLa, HELA 2000cells/well, supplement DataSheet2, Repeat1, read-out: IC50 Repeat1.
Where [5] appears, read: Homo sapiens, HeLa, HELA 2000cells/well, supplement DataSheet2, Repeat 2, read-out: IC50 Repeat 2.
Setting [6] is: Homo sapiens, HeLa, HELA 2000cells/well, supplement DataSheet2, mean of two repeats ± SD, read-out: IC50 mean±SD.

Each structure is given as a SMILES string. Where two headings read alike, the source gives them in different places.

A word on the melting point: it is the temperature, or range, at which the solid turns liquid. Broadly, the IC50 is the concentration at which inhibition is half-maximal. In general, inhibition refers to the percentage by which the read-out fell short of the control. With `COCCOc1cc2ncnc(Nc3cccc(-c4cn(Cc5ccccc5)nn4)c3)c2cc1OCCOC` [Compound 4a, [3-(1-Benzyl-1H-[1,2,3]triazol-4-yl)-phenyl]-[6,7-bis-(2-methoxy-ethoxy)-quinazolin-4-yl]-amine], the melting point was in the range of 89 to 92 °C. Moreover, in the data set on HeLa cells (setting [1]), the IC50 was greater than 50 µM. In addition, in the data set with HeLa cells (setting [2]), the inhibition at 0.25 µM came out at 0%, the inhibition at 0.5 µM was determined as 8.2%, the inhibition at 1 µM came out at 8.54% and the inhibition at 2 µM came out at 8.54%. In addition, in the data set with HeLa cells (setting [2]), the inhibition at 4 µM worked out at 12.1%, the inhibition at 8 µM worked out at 12.5% and the inhibition at 16 µM turned out to be 16.3%. In the data set with HeLa cells (setting [3]), the inhibition at 0.25 µM was 4.4%, the inhibition at 0.5 µM came out at 5.61%, the inhibition at 1 µM came to 6.73% and the inhibition at 2 µM turned out to be 6.73%. For the same compound, in the data set with HeLa cells (setting [3]), the inhibition at 4 µM was 12.1%, the inhibition at 8 µM was 13.8% and the inhibition at 16 µM worked out at 15.5%.

For `COCCOc1cc2ncnc(Nc3cccc(-c4cn(-c5cccc(OC)c5)nn4)c3)c2cc1OCCOC` [Compound 4e, [6,7-Bis-(2-methoxy-ethoxy)-quinazolin-4-yl]-{3-[1-(3-methoxy-phenyl)-1H-[1,2,3]triazol-4-yl]-phenyl}-amine], the IC50 in the data set with HeLa cells (setting [1]) is greater than 50 µM. For the same compound, in the data set on HeLa cells (setting [2]), the inhibition at 0.25 µM amounted to 0.801%, the inhibition at 0.5 µM was 4.97%, the inhibition at 1 µM amounted to 7.13% and the inhibition at 2 µM is 14.1%. Moreover, in the data set with HeLa cells (setting [2]), the inhibition at 4 µM worked out at 15%, the inhibition at 8 µM was found to be 16.5% and the inhibition at 16 µM came out at 18.2%. Further, in the data set on HeLa cells (setting [3]), the inhibition at 0.25 µM was found to be 0%, the inhibition at 0.5 µM was determined as 2.08%, the inhibition at 1 µM amounted to 3.04% and the inhibition at 2 µM came out at 5.45%. Besides, in the data set on HeLa cells (setting [3]), the inhibition at 4 µM is 13.5%, the inhibition at 8 µM was 15.1% and the inhibition at 16 µM worked out at 15.9%.

For the compound `C#Cc1cccc(Nc2ncnc3cc(OCCOC)c(OCCOC)cc23)c1` [Erlotinib, erlotinib], in the data set with HeLa cells (Homo sapiens, HeLa cells, CCK8, 48 h, mean ± SD, n = 3, read-out: IC50 (μM) HeLa), the IC50 turned out to be 39.5 ± 3.34 µM.

In turn, `COCCOc1cc2ncnc(Nc3cccc(-c4cn(-c5ccccc5F)nn4)c3)c2cc1OCCOC` [Compound 4f, [6,7-Bis-(2-methoxy-ethoxy)-quinazolin-4-yl]-{3-[1-(2-fluoro-phenyl)-1H-[1,2,3]triazol-4-yl]-phenyl}-amine] yielded a melting point of 83 to 86 °C. Besides, the concentration for half-maximal inhibition (IC50) with HeLa cells (setting [1]) is 30.7 ± 1.83 µM. Besides, in the data set on HeLa cells (setting [4]), the IC50 amounted to 32.4 µM. Further, in the data set on HeLa cells (setting [5]), the IC50 amounted to 28.7 µM. For the same compound, the IC50 in the data set on HeLa cells (setting [6]) amounted to 30.7 ± 1.83 µM. In the data set on HeLa cells (setting [2]), the inhibition at 0.25 µM worked out at 2.17%, the inhibition at 0.5 µM was 2.51%, the inhibition at 1 µM came out at 3.51% and the inhibition at 2 µM is 4.77%. In the data set with HeLa cells (setting [2]), the inhibition at 4 µM amounted to 8.86%, the inhibition at 8 µM turned out to be 29.8% and the inhibition at 16 µM turned out to be 31.1%. Besides, in the data set with HeLa cells (setting [3]), the inhibition at 0.25 µM was 0%, the inhibition at 0.5 µM was 0.418%, the inhibition at 1 µM came out at 0.502% and the inhibition at 2 µM was 2.17%. In the data set with HeLa cells (setting [3]), the inhibition at 4 µM came to 3.18%, the inhibition at 8 µM was found to be 23.1% and the inhibition at 16 µM worked out at 30.4%.

The compound `COCCOc1cc2ncnc(Nc3cccc(-c4cn(-c5ccccc5Br)nn4)c3)c2cc1OCCOC` [Compound 4i, [6,7-Bis-(2-methoxy-ethoxy)-quinazolin-4-yl]-{3-[1-(2-bromo-phenyl)-1H-[1,2,3]triazol-4-yl]-phenyl}-amine] came in with a melting point of 93 to 97 °C. Further, the IC50 in the data set on HeLa cells (HeLa cells, CCK8, 48 h, mean ± SD, n = 3, read-out: IC50 (μM) HeLa) amounted to 4.36 ± 0.15 µM. The IC50 in the data set on HeLa cells (setting [1]) turned out to be 4.16 µM. Besides, the IC50 in the data set with HeLa cells (setting [4]) is 4.41 µM. Moreover, the 50% inhibitory concentration (IC50) in the data set on HeLa cells (setting [5]) was determined as 4.3 µM. The IC50 with HeLa cells (setting [6]) is 4.36 ± 0.054 µM. In the data set on HeLa cells (setting [2]), the inhibition at 0.25 µM came to 2.62%, the inhibition at 0.5 µM is 6.42%, the inhibition at 1 µM was found to be 9.04% and the inhibition at 2 µM was found to be 15.2%. Further, in the data set on HeLa cells (setting [2]), the inhibition at 4 µM turned out to be 41.6%, the inhibition at 8 µM is 83.4% and the inhibition at 16 µM is 88.1%. In the data set on HeLa cells (setting [3]), the inhibition at 0.25 µM came to 0%, the inhibition at 0.5 µM came to 5.74%, the inhibition at 1 µM stood at 6.59% and the inhibition at 2 µM is 17.7%. Moreover, in the data set on HeLa cells (setting [3]), the inhibition at 4 µM stood at 42.6%, the inhibition at 8 µM was determined as 83.9% and the inhibition at 16 µM amounted to 88.9%.

Compound `COCCOc1cc2ncnc(Nc3cccc(-c4cn(-c5ccc(Br)cc5)nn4)c3)c2cc1OCCOC` [Compound 4j, [6,7-Bis-(2-methoxy-ethoxy)-quinazolin-4-yl]-{3-[1-(4-bromo-phenyl)-1H-[1,2,3]triazol-4-yl]-phenyl}-amine] yielded a melting point of 105 to 108 °C. In the data set with HeLa cells (setting [1]), the concentration for half-maximal inhibition (IC50) worked out at 12.2 ± 1 µM. Further, the IC50 in the data set with HeLa cells (setting [4]) turned out to be 11.3 µM. Also, the IC50 in the data set with HeLa cells (setting [5]) was 13.3 µM. Moreover, in the data set on HeLa cells (setting [6]), the IC50 turned out to be 12.2 ± 1.01 µM. In the data set on HeLa cells (setting [2]), the inhibition at 0.25 µM was found to be 0%, the inhibition at 0.5 µM came out at 0.0873%, the inhibition at 1 µM amounted to 0.96% and the inhibition at 2 µM was 4.01%. Also, in the data set on HeLa cells (setting [2]), the inhibition at 4 µM was 8.03%, the inhibition at 8 µM was 26.2% and the inhibition at 16 µM was 73.6%. Further, in the data set with HeLa cells (setting [3]), the inhibition at 0.25 µM came out at 2.88%, the inhibition at 0.5 µM was 2.97%, the inhibition at 1 µM was found to be 4.36% and the inhibition at 2 µM was determined as 4.89%. For the same compound, in the data set on HeLa cells (setting [3]), the inhibition at 4 µM is 8.64%, the inhibition at 8 µM was 17.7% and the inhibition at 16 µM came to 63.3%.

`COCCOc1cc2ncnc(Nc3cccc(-c4cn(Cc5ccccc5Br)nn4)c3)c2cc1OCCOC` [Compound 4c, [6,7-Bis-(2-methoxy-ethoxy)-quinazolin-4-yl]-{3-[1-(2-bromo-benzyl)-1H-[1,2,3]triazol-4-yl]-phenyl}-amine] displayed a melting point of 94 to 97 °C. Moreover, in the data set on HeLa cells (setting [1]), the IC50 is 21.3 ± 7.79 µM. In addition, in the data set with HeLa cells (setting [4]), the half-inhibitory concentration (IC50) was 14.8 µM. For the same compound, the IC50 with HeLa cells (setting [5]) stood at 30.4 µM. Moreover, in the data set with HeLa cells (setting [2]), the inhibition at 0.25 µM is 2.33%, the inhibition at 0.5 µM was found to be 4.15%, the inhibition at 1 µM came out at 4.75% and the inhibition at 2 µM worked out at 15.8%. In the data set with HeLa cells (setting [2]), the inhibition at 4 µM worked out at 35.6%, the inhibition at 8 µM was 42.4% and the inhibition at 16 µM came to 45%. Moreover, in the data set with HeLa cells (setting [3]), the inhibition at 0.25 µM was determined as 0%, the inhibition at 0.5 µM turned out to be 1.82%, the inhibition at 1 µM stood at 2.33% and the inhibition at 2 µM was found to be 9.94%. Also, in the data set on HeLa cells (setting [3]), the inhibition at 4 µM stood at 21.3%, the inhibition at 8 µM was 29.7% and the inhibition at 16 µM was found to be 34.1%.

For `COCCOc1cc2ncnc(Nc3cccc(-c4cn(-c5cccc([N+](=O)[O-])c5)nn4)c3)c2cc1OCCOC` [Compound 4m, [6,7-Bis-(2-methoxy-ethoxy)-quinazolin-4-yl]-{3-[1-(3-nitro-phenyl)-1H-[1,2,3]triazol-4-yl]-phenyl}-amine], the melting point was 98 to 101 °C. Further, the IC50 in the data set on HeLa cells (setting [1]) was determined as 3.79 ± 0.1 µM. In addition, the IC50 in the data set on HeLa cells (setting [4]) is 3.89 µM. Further, the IC50 in the data set on HeLa cells (setting [5]) is 3.69 µM. Also, the IC50 in the data set with HeLa cells (setting [6]) turned out to be 3.79 ± 0.103 µM. For the same compound, in the data set on HeLa cells (setting [2]), the inhibition at 0.25 µM worked out at 0%, the inhibition at 0.5 µM came out at 3.48%, the inhibition at 1 µM turned out to be 8.91% and the inhibition at 2 µM came to 42.2%. Also, in the data set on HeLa cells (setting [2]), the inhibition at 4 µM turned out to be 54.2%, the inhibition at 8 µM amounted to 67.5% and the inhibition at 16 µM amounted to 77.1%. In the data set with HeLa cells (setting [3]), the inhibition at 0.25 µM was found to be 7.86%, the inhibition at 0.5 µM was 5.51%, the inhibition at 1 µM came out at 15.1% and the inhibition at 2 µM was determined as 42.1%. Moreover, in the data set with HeLa cells (setting [3]), the inhibition at 4 µM stood at 56.2%, the inhibition at 8 µM worked out at 66.5% and the inhibition at 16 µM was 77.2%.
